Key:
K. pneumoniae B88 [1] = test: Minimum filamentation / spheroplasting concentration; details: K. pneumoniae B88 (NDM, SHV, TEM); minimum spheroplasting concentration
Source text: The term “MSC” as used herein refers to minimum spheroplasting concentration, which is the minimum concentration of an antibacterial agent at which about 80% of bacterial cells covert into spheroplasts.
The term “MFC” as used herein refers to minimum filamentation concentration, which is the minimum concentration of an antibacterial agent at which about 80% of bacterial cells get elongated to form filament like structures.

K pneumoniae J 101 = test: MIC determination (agar dilution, CLSI); format: cell-based; details: K pneumoniae J 101 (TEM1, SHV12, OMP); standalone
Protocol: (§1) In a typical procedure for determining MIC values, overnight grown bacterial cultures were diluted appropriately and inoculated on the agar media containing doubling concentrations of the test compounds. Observation for growth or no growth was performed after 16-20 hours of incubation at 35±2° C. in ambient air. The overall procedure was performed as per Clinical and Laboratory Standards Institute (CLSI) recommendations (Clinical and Laboratory Standards Institute (CLSI), Performance Standards for Antimicrobial Susceptibility Testing, 20th Informational Supplement, M 100-S20, Volume 30, No. 1, 2010).

K pneumoniae J 104 = test: MIC determination (agar dilution, CLSI); format: cell-based; details: K pneumoniae J 104 (TEM1, SHV11, CTX-M, OMP); standalone
Protocol: as §1

K pneumoniae J 102 = test: MIC determination (agar dilution, CLSI); format: cell-based; details: K pneumoniae J 102 (TEM1, SHV5, OMP); standalone
Protocol: as §1

K pneumoniae J 105 = test: MIC determination (agar dilution, CLSI); format: cell-based; details: K pneumoniae J 105 (TEM1, SHV2, CTX-M, OMP); standalone
Protocol: as §1

Pseudomonas PBP 5/6 = Pseudomonas PBP 5/6 (Pseudomonas aeruginosa, UniProt G3XD74); test: PBP binding assay (Bocillin FL competition); details: read-out: IC50
Protocol: (§2) The phrase “selective and high affinity PBP binder” refers to a PBP binder which binds to only one PBP with very high affinity. In general, the term “selective and high affinity PBP binder” also includes those binders where a substantial fraction of binder selectively binds to only one PBP with high affinity. […]. The term “IC50 value” of a compound refers to the concentration of the compound that reduces the binding of Bocillin-FL to PBPs by 50% as compared to when no compound was added to the reaction.
(§3) A compound of Formula (III) was prepared using the procedure disclosed in PCT International Application No. PCT/IB2012/054290 and was evaluated for its PBP binding affinity profile. […] The reaction mixtures were then denatured with 20 μl each of SDS-denaturing solution at 100° C. for 3 min PBPs were separated through 10% SDS polyacrylamide gel electrophoresis (Bio-Rad Laboratories, Hercules, Calif.). The protein gels were rinsed in water immediately after electrophoresis. […] […].

Pseudomonas PBP 1A = target: T1, Pseudomonas PBP 1A (Pseudomonas aeruginosa, UniProt Q07806); test: PBP binding assay (Bocillin FL competition); details: Pseudomonas PBP 1A; read-out: IC50 (converted)
T1 construct: endogenous in cells
Protocol: as §2, §3

K. pneumoniae B88 [2] = test: MIC determination; format: cell-based; details: Klebsiella pneumoniae; K. pneumoniae B88 (NDM, SHV, TEM)
Protocol: as §1

P. mirabilis G 186 = test: MIC determination; format: cell-based; details: Proteus mirabilis, G186; P. mirabilis G 186 (NDM, TEM)
Protocol: as §1

E. coli ATCC 25922 = test: Time kill study (viability count); format: cell-based; details: for Bacterial count: Compound of Formula (III) 2 μg/ml, alone or combined
Protocol: (§4) The antibacterial effectiveness of various antibacterial agents in presence of a compound of Formula (III) was investigated and the results are detailed below. In a typical study, overnight cultures in Trypticase soya broth (TSB) were brought to log phase by 1 in 10 dilution in fresh cation adjusted Mueller Hinton Broth (MHB) and incubation for 2.5 hours at 35° C. in orbital shaker. Log phase cultures were diluted to desired inoculums in flasks with MHB, containing various drug concentrations. Flasks were incubated at 35° C. in orbital shaker with rotational speed of 125 rpm. Viability count was determined by 1 in 10 serial dilutions of samples in normal saline and surface spreading of 10 μl of dilutions in duplicate on Trypticase soya agar plates. Plates were incubated for 24 hours at 35° C. and colonies were enumerated to determine the colony forming units (CFU) per ml volume.

[3] = system: Acinetobacter baumannii NCTC 13304 producing carbapenem hydrolyzing Class D OXA enzyme (OXA 27); test: Time kill study (viability count); format: cell-based; details: Cefepime 8 μg/ml, Compound of Formula (III) 8 μg/ml, Imipenem 16 μg/ml
Protocol: as §4

P. aeruginosa PAO1 = test: Time kill study (viability count); format: cell-based; details: for Bacterial count: Compound of Formula (III) 4 μg/ml, alone or combined
Protocol: as §4

[4] = system: Pseudomonas aeruginosa NCTC 13437 producing carbapenem hydrolyzing MBL (VIM 10) & Class A (VEB1); test: Time kill study (viability count); format: cell-based; details: Cefepime 8 μg/ml, Compound of Formula (III) 8 μg/ml, Imipenem 16 μg/ml
Protocol: as §4

Pseudomonas PBP 3 = target: T2, Pseudomonas PBP 3 (Pseudomonas aeruginosa, UniProt G3XD46); test: biochemical; format: binding
T2 construct: endogenous in cells
Protocol: The phrase “selective and high affinity PBP binder” refers to a PBP binder which binds to only one PBP with very high affinity. In general, the term “selective and high affinity PBP binder” also includes those binders where a substantial fraction of binder selectively binds to only one PBP with high affinity.
The reaction mixtures were then denatured with 20 μl each of SDS-denaturing solution at 100° C. for 3 min PBPs were separated through 10% SDS polyacrylamide gel electrophoresis (Bio-Rad Laboratories, Hercules, Calif.). The protein gels were rinsed in water immediately after electrophoresis.

T1 sequence (Q07806 whole entry): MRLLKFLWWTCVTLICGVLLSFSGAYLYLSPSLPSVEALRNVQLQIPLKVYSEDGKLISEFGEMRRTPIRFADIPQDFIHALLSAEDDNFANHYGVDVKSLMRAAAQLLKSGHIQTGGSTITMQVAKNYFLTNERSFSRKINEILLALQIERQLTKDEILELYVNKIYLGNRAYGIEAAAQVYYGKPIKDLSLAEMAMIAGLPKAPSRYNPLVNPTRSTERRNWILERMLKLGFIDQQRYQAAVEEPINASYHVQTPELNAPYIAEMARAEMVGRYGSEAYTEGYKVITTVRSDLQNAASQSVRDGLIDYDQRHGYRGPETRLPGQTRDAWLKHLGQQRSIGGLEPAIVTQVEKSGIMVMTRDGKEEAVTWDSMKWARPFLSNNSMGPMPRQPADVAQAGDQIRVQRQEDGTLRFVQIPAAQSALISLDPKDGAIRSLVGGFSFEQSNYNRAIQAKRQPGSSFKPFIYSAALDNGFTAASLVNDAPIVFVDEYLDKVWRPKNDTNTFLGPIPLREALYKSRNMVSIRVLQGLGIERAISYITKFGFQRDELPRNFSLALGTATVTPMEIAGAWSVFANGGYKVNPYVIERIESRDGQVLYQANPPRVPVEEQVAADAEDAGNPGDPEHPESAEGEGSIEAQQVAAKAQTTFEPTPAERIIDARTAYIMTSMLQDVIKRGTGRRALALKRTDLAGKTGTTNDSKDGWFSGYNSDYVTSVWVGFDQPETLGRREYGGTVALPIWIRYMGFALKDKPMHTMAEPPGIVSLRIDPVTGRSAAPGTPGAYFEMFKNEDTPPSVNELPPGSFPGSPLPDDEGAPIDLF
Sequence of Pseudomonas PBP 5/6 (G3XD74 entry or part of it): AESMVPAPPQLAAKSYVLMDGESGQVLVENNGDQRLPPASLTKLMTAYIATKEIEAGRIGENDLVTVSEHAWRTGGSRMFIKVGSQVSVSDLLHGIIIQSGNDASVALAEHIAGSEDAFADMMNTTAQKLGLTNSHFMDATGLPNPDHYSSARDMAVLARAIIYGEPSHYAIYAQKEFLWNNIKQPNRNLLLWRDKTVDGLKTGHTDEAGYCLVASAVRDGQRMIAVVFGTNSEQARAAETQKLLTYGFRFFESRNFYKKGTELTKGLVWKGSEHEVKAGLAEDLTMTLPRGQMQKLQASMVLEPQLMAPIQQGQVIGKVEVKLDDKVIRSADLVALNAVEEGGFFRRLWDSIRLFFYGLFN
T2 sequence (G3XD46 whole entry): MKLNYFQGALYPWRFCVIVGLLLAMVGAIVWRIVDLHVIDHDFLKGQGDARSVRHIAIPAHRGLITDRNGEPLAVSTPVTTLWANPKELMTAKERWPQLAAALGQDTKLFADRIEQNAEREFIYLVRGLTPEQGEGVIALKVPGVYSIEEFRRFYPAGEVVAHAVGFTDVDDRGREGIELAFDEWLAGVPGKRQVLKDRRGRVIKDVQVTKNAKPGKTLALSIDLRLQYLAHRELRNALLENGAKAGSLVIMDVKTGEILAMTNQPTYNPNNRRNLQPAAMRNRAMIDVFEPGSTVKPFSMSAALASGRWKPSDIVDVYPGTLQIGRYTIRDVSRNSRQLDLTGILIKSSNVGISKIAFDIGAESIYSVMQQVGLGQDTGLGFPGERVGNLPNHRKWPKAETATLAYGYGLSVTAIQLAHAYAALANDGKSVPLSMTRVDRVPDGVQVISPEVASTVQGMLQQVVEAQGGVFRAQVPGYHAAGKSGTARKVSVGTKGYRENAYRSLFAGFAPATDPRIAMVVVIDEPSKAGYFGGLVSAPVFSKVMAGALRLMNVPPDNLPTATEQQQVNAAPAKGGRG

For `O=C(NNC(=O)[C@@H]1CC[C@@H]2CN1C(=O)N2OS(=O)(=O)O)[C@@H]1CCCNC1` [Compound of Formula (III), trans-(2S,5R)-sulfuric acid mono-[2-(N′—[(R)-piperidin-3-carbonyl]-hydrazino Carbonyl)-7-oxo-1,6-diaza-bicyclo[3.2.1]oct-6-yl] Ester], the MSC (K. pneumoniae B88 [1]) was 0.12 µg/mL, the MIC (K pneumoniae J 101) was > 32 µg/mL and the MIC (K pneumoniae J 104) was > 32 µg/mL. For the same compound, the MIC (K pneumoniae J 102) was > 32 µg/mL, the MIC (K pneumoniae J 105) was > 32 µg/mL and the IC50 (Pseudomonas PBP 5/6) was > 10.2 µM. The IC50 (Pseudomonas PBP 1A) was > 10.2 µM, the MIC (K. pneumoniae B88 [2]) was 8 µg/mL and the MIC (P. mirabilis G 186) was > 64 µg/mL. For the same compound, the Bacterial count (E. coli ATCC 25922; 0 hour, Aztreonam 1 μg/ml) was 7.47 log (CFU/ml), the Bacterial count (E. coli ATCC 25922; 0 hour, Cefoxitin 1 μg/ml) was 7.47 log (CFU/ml) and the Bacterial count (E. coli ATCC 25922; 0 hour, Cefsulodin 16 μg/ml) was 7.47 log (CFU/ml). The Bacterial count (E. coli ATCC 25922; 2 hours, Aztreonam 1 μg/ml) was 7.85 log (CFU/ml), the Bacterial count (E. coli ATCC 25922; 2 hours, Cefoxitin 1 μg/ml) was 7.85 log (CFU/ml) and the Bacterial count (E. coli ATCC 25922; 2 hours, Cefsulodin 16 μg/ml) was 7.85 log (CFU/ml). The Bacterial count (E. coli ATCC 25922; 4 hours, Aztreonam 1 μg/ml) was 7.88 log (CFU/ml), the Bacterial count (E. coli ATCC 25922; 4 hours, Cefoxitin 1 μg/ml) was 7.88 log (CFU/ml) and the Bacterial count (E. coli ATCC 25922; 4 hours, Cefsulodin 16 μg/ml) was 7.88 log (CFU/ml). For the same compound, the Bacterial count (E. coli ATCC 25922; 6 hours, Aztreonam 1 μg/ml) was 8.26 log (CFU/ml), the Bacterial count (E. coli ATCC 25922; 6 hours, Cefoxitin 1 μg/ml) was 8.26 log (CFU/ml) and the Bacterial count (E. coli ATCC 25922; 6 hours, Cefsulodin 16 μg/ml) was 8.26 log (CFU/ml). For the same compound, the Bacterial count (E. coli ATCC 25922; 24 hours, Aztreonam 1 μg/ml) was 8.34 log (CFU/ml), the Bacterial count (E. coli ATCC 25922; 24 hours, Cefoxitin 1 μg/ml) was 8.34 log (CFU/ml) and the Bacterial count (E. coli ATCC 25922; 24 hours, Cefsulodin 16 μg/ml) was 8.34 log (CFU/ml). For the same compound, the “Bactericidal action (in words)” value (E. coli ATCC 25922; E. coli ATCC 25922, standalone or combination, Tables 3 to 5) was “did not exhibit any significant bactericidal action”, the Bacterial count ([3]; 0 hour) was 6.3 log (CFU/ml) and the Bacterial count ([3]; 2 hours) was 7.5 log (CFU/ml). For the same compound, the Bacterial count ([3]; 4 hours) was 7.9 log (CFU/ml), the Bacterial count ([3]; 6 hours) was 8.1 log (CFU/ml) and the Bacterial count ([3]; 8 hours) was 8.1 log (CFU/ml). The Bacterial count (P. aeruginosa PAO1; 0 hour, Aztreonam 2 μg/ml) was 5.74 log (CFU/ml), the Bacterial count (P. aeruginosa PAO1; 0 hour, Cefsulodin 2 μg/ml) was 6.81 log (CFU/ml) and the Bacterial count (P. aeruginosa PAO1; 2 hours, Aztreonam 2 μg/ml) was 6.5 log (CFU/ml). The Bacterial count (P. aeruginosa PAO1; 2 hours, Cefsulodin 2 μg/ml) was 7.23 log (CFU/ml), the Bacterial count (P. aeruginosa PAO1; 4 hours, Aztreonam 2 μg/ml) was 7.6 log (CFU/ml) and the Bacterial count (P. aeruginosa PAO1; 4 hours, Cefsulodin 2 μg/ml) was 7.18 log (CFU/ml). The Bacterial count (P. aeruginosa PAO1; 6 hours, Aztreonam 2 μg/ml) was 7.9 log (CFU/ml), the Bacterial count (P. aeruginosa PAO1; 6 hours, Cefsulodin 2 μg/ml) was 7.5 log (CFU/ml) and the Bacterial count (P. aeruginosa PAO1; 24 hours, Aztreonam 2 μg/ml) was 8.8 log (CFU/ml). The Bacterial count (P. aeruginosa PAO1; 24 hours, Cefsulodin 2 μg/ml) was 8.2 log (CFU/ml), the “Bactericidal action (in words)” value (P. aeruginosa PAO1; P. aeruginosa PAO1, standalone or combination, Tables 6 and 7) was “did not exhibit any bactericidal action” and the Bacterial count ([4]; 0 hour) was 6.0 log (CFU/ml). The Bacterial count ([4]; 2 hours) was 6.55 log (CFU/ml), the Bacterial count ([4]; 4 hours) was 5.9 log (CFU/ml) and the Bacterial count ([4]; 6 hours) was 5.81 log (CFU/ml). The Bacterial count ([4]; 12 hours) was 6.2 log (CFU/ml) and the IC50 (Pseudomonas PBP 3) was > 10.2 µM.

— patent publication US20170172994A1, “COMPOSITIONS AND METHODS FOR TREATING BACTERIAL INFECTIONS” (WOCKHARDT LIMITED, priority 2013, published 2017)
